In patent US5885786A, “Methods for screening of substances for inhibition of multidrug resistance” (priority 1996, dated 1999):
“Also recorded” adds a separate entry of the source. Read-outs that look alike come from different tables or passages of the source.

How the values were obtained:
[1] = system: glycosphingolipid synthesis in MCF-7-AdrR cells; experiment: Synthesis of glycosphingolipids in MCF-7-AdrR cells labeled with [3H]galactose; format: cell-based; conditions: for inhibition at 5 µM: 5.0 μM tamoxifen, [3H]galactose 24 h, FIG. 10
Description: FIG. 10. […] Glc-cer, glycosylceramide; Lac-cer, lactosylceramide; Con, control; Tam, tamoxifen.
(§1) MCF-7 cells, grown in medium containing 10% FBS, were switched to media containing 5% FBS. Cell lipids were radiolabeled by adding [^3 H]serine (2.0 μCi/ml), [^3 H]palmitic acid (1.0 μCi/ml), or [^3 H]galactose (1.0 μCi/ml) to the culture medium for the indicated times. Other radiolabels can be substituted. Cells were then rinsed twice with PBS, pH 7.4, and 2 ml of ice-cold methanol containing 2% acetic acid was added. The cells were scraped free, transferred to glass test tubes (13×100 mm), and lipids were extracted by the addition of chloroform (2 ml) followed by water (2 ml). The resulting organic lower phase was withdrawn and evaporated under a stream of nitrogen. Lipids were resuspended in 100 μL of chloroform/methanol (1:1, v/v), and aliquots were applied to TLC plates.
When using [^3 H]galactose, radiolabeled cells were transferred to glass tubes with PBS (1 ml), glucocerebroside (2.5 μg) was added to aid recovery, and lipids were extracted consecutively three times with 2 ml of chloroform/methanol (1:1, v/v).

MCF-7-AdrR cells = experiment: Cell proliferation (MTS) assay: adriamycin toxicity and chemosensitization; conditions: for effect on adriamycin toxicity / chemosensitization (in words): 5.0 μM tested drug + adriamycin, 72 h, FIG. 15A, 16B
Description: FIG. 15A and FIG. 15B. […] FIG. 15B: Glycosylceramide levels in MDR Cells following drug treatment. […] In order to avoid differences in [^3 H]glycosylceramide values which account for cell death, the same amount of total radioactive lipid from each sample was applied to TLC separation.
FIG. 16A and FIG. 16B. […] FIG. 16A: Effect of PPMP on cellular glycosylceramide levels. […] [^3 H]Glycosylceramide was quantitated as described in the legend to FIG. 9.
Vehicle (acetone, ethanol) was always added to control (minus drug) wells. The cytotoxic activity of a drug was determined using the Promega CellTiter 96™ AQueous MTS cell proliferation assay kit. Each experimental point was performed in six replicates. MTS/PMS solution (20 μl/well) was aliquoted into all wells, and the cells were incubated for 2-3 h, or until an O.D. of 0.9-1.0 was obtained as a highest reading. Thereafter, absorbence at 490 nm was recorded using an ELISA plate reader (Molecular Devices, San Diego, Calif.).

[2] = system: glycosylceramide synthesis in MCF-7-AdrR cells; experiment: Glycosylceramide levels in MDR cells following drug treatment, [3H]serine 48 h; format: cell-based; conditions: FIG. 15B
acid sphingomyelinase = conditions: literature; cited from earlier work
[3] = system: glycosylceramide formation in MCF-7-AdrR cells; experiment: Inhibition of [3H]glycosylceramide formation in MCF-7-AdrR cells (TLC, liquid scintillation); format: cell-based; conditions: for inhibition of glycosylceramide synthesis (in words): MCF-7-AdrR cells
Description: FIG. 9. […] Values represent the mean of determinations from three separate experiments, and are calculated as the percent glycosylceramide in the total lipid tritium extract.
FIG. 11A and FIG. 11B. […] FIG. 11: A Autoradiography. […] For autoradiography equal aliquots by volume of total lipid extract were applied to TLC plates. […] [^3 H]Glycosylceramide, visualized in panel A, was quantitated as described in the legend to FIG. 9. Each value represents mean±SEM of determinations from three separate experiments.
FIG. 12. […] [^3 H]Glycosylceramide was quantitated as described in the legend to FIG. 9. Results represents the mean±SEM of determinations from three separate experiments.
as §1
Lipid analysis was carried out by TLC using solvent system I: chloroform/methanol/ammonium hydroxide (40:10:1, v/v) for glycosylceramide separation, solvent system II: chloroform/methanol/water (60:40:8, v/v) for sphingoglycolipid separation, or solvent system III: chloroform/methanol/acetic acid/water (50:30:7:3, v/v) for sphingomyelin separation. For determination of ceramides, an aliquot of the chloroform-soluble lipids was base-hydrolyzed in 0.1N KOH in methanol for 1 h at 37° C., lipids were re-extracted, and separated by TLC using solvent system IV: hexane/diethyl ether/formic acid (60:40:1, v/v).
Radiochromatograms were sprayed with EN^3 HANCE, and exposed for 3-7 days for autofluorgraphy. TLC areas, aligned with bands on the autoradiographs or with iodine-stained commercial lipid standards, were scraped from the plate. Water (0.5 ml) was added to the plate scrapings followed by 4.5 ml of EcoLume counting fluid, and the samples were quantitated by liquid scintillation spectrometry.

[4] = system: glycosylation of ceramide in MCF-7-AdrR cells (UDP-glucose:ceramide glucosyltransferase); experiment: Glycosylation of C6-ceramide and natural glycosphingolipid synthesis, [3H]galactose labeling; format: cell-based; conditions: for inhibition at 5 µM: 5.0 μM tamoxifen, FIG. 14B
Description: FIG. 14A and FIG. 14B. Effect of Tamoxifen on Ceramide Synthesis and Glycosylation in MCF-7-AdrR Cells. FIG. 14: A Influence of tamoxifen on ceramide synthesis. The experiment was conducted as described in the legend to FIG. 13. Aliquots of the total lipid extract were based-hydrolyzed as described in Example I, separated by TLC using solvent system IV, and the resolved [^3 H]ceramide was quantitated by liquid scintillation spectrometry. Results are the mean±SEM of duplicate determinations from two separate experiments. FIG. 14B: Effect of tamoxifen on glycosylation of C6 -ceramide. Cells, in 100×20 mm culture dishes, were preincubated without or with 5.0 μM tamoxifen for 30 min, followed by incubation without or with 5.0 μM C6 -ceramide:BSA (prepared at a 1:1 molar ratio) for an additional 30 min. Cells were labeled thereafter with 1.0 μCi/ml [^3 H]galactose for 24 h. [3H]Galactose uptake was determined and found to be similar in all experimental points (1.0×10^6 cpm/dish). The total extracted lipid was applied to TLC separation and [^3 H]glycosphingolipids were analyzed as described in the legend to FIG. 10. The autoradiography of a representative chromatogram is shown.
In order to explore this notion, a short-chain ceramide analog with a 6-carbon N-acyl group (C6 -ceramide), was utilized as a substrate.

Work on CC/C(=C(\c1ccccc1)c1ccc(OCCN(C)C)cc1)c1ccccc1 [tamoxifen] yielded an inhibition at 5 µM ([1]; read-out: reduction of ganglioside level) of 33%, an inhibition at 5 µM ([1]; read-out: reduction of glycosylceramide level) of 69% and an inhibition at 5 µM ([1]; read-out: reduction of lactosylceramide level) of 74%. For the same compound, the “synthesis of higher gangliosides (in words)” value ([1]; tamoxifen, MCF-7-AdrR) was “suppress synthesis of higher gangliosides”, the “effect on adriamycin toxicity / chemosensitization (in words)” value (MCF-7-AdrR cells) was “shifted to lower concentrations; also recorded: very potent in cell killing” and the “effect on adriamycin toxicity / chemosensitization (in words)” value (MCF-7-AdrR cells; listed as Tamoxifen) was “potently sensitized”. For the same compound, the “effect of the substance alone on cell survival (in words)” value (MCF-7-AdrR cells; MCF-7-AdrR, alone) was “not toxic”, the “inhibition of glycosylceramide synthesis (in words)” value ([2]; 5.0 μM, alone or with adriamycin 2.5 μM) was “greatly retarded” and the “inhibition of glycosylceramide production, tamoxifen added to adriamycin” value ([2]; tamoxifen 5.0 μM + adriamycin 2.5 μM) was 72%. For the same compound, the “inhibition of acid sphingomyelinase (in words)” value (acid sphingomyelinase) was “inhibition of acid sphingomyelinase activity”, the inhibition at 5 µM ([3]; 5.0 μM drug, 24 h, MCF-7-AdrR, FIG. 11B, read-out: inhibition of glycosylceramide formation (cpm tritium)) was 65% and the IC50 ([3]; 24 h incubation with [3H]palmitic acid, FIG. 12, read-out: half-maximal inhibition (IC50) of cellular [3H]glycosylceramide formation) was 1000 nM. For the same compound, the “maximal inhibitory effect on glycosylceramide formation (in words)” value ([3]; FIG. 12) was “highest maximal effect”, the “inhibition of glycosylceramide synthesis (in words)” value [3] was “strongly inhibited” and the “inhibition of glycosylceramide synthesis (in words)” value ([3]; listed as Tamoxifen) was “drastically inhibit”. The inhibition at 5 µM ([4]; 5.0 μM C6-ceramide, read-out: inhibition of conversion of C6-ceramide to C6-glycosylceramide) was 54%, the inhibition at 5 µM ([4]; in presence of C6-ceramide, read-out: inhibition of formation of natural glycosylceramide) was 43% and the “inhibition of glycosylation of C6-ceramide (in words)” value ([4]; tamoxifen) was “drastically inhibited”.
